Consider 31 molecules from patent US20130344026A1, “Dimeric Smac Mimetics” (priority 2009, published 2013).

Where only a bound is given, the exact number is not on record here.

For one experiment, the system named is HCC461. The experiment in a line: cell viability assay in HCC461, compound alone. The settings on record: HCC461, HCC461; Tables 6-9; read-out: IC50 (μM) in cell viability assay in HCC461. Type of experiment: cell-based.
Turning to `CN[C@@H](C)C(=O)N[C@H](C(=O)N1C[C@@H](NC(=O)c2cccc(C(=O)NCC[C@@H](NC(=O)[C@H](NC(=O)[C@H](N)CO)C(C)C)C(=O)N[C@@H](C)C(C)C)c2)C[C@H]1C(=O)N[C@@H]1CCCc2ccccc21)C(C)(C)C` [Compound 139], the IC50 (as a rule, the concentration at which inhibition is half-maximal) was found to be 0.849 µM. Same read-out and setting: under `CCC[C@H](NC(=O)[C@H](C)NC)C(=O)N1C[C@@H](NC(=O)c2cccc(C(=O)N[C@H]3C[C@@H](C(=O)N[C@@H]4CCCc5ccccc54)N(C(=O)[C@@H](NC(=O)[C@H](C)NC)C(C)(C)C)C3)c2)C[C@H]1C(=O)N1CCCC1` [Compound 155] stands 0.467 µM; under `CN[C@@H](C)C(=O)N[C@H](C(=O)N1C[C@@H](NC(=O)CC[C@@H](NC(=O)[C@H](NC(=O)[C@@H](C)NC)C(C)C)C(=O)N[C@@H](C)C(C)C)C[C@H]1C(=O)N[C@@H]1CCCc2ccccc21)C(C)(C)C` [Compound 158], above 30 µM; under `CN[C@@H](C)C(=O)N[C@@H](CC#CC#CC[C@H](NC(=O)[C@H](C)NC)C(=O)N1CC=C[C@H]1C(=O)N[C@@H]1CCCc2ccccc21)C(=O)N1CC=C[C@H]1C(=O)N[C@@H]1CCCc2ccccc21` [Compound 89], 0.414 µM. Still for that read-out and setting: the same measure for `CN[C@@H](C)C(=O)N[C@H](C(=O)N1C[C@@H](NC(=O)CC[C@@H](NC(=O)[C@H](NC(=O)[C@@H](C)NC)C(C)(C)C)C(=O)N[C@H]2CCCc3ccccc32)C[C@H]1C(=O)N[C@@H]1CCCc2ccccc21)C(C)(C)C` [Compound 157]: 0.03 µM; for `CN[C@@H](C)C(=O)N[C@@H](CCC(=O)OC)C(=O)N1C[C@@H](NC(=O)c2cccc(C(=O)N[C@H]3C[C@@H](C(=O)N[C@@H]4CCCc5ccccc54)N(C(=O)[C@@H](NC(=O)[C@H](C)NC)C(C)(C)C)C3)c2)CC1C(=O)N[C@H](C)c1ccccc1` (stereo partly shown) [Compound 149]: 0.072 µM. Turning to `CN[C@@H](C)C(=O)NC(C(=O)N1C[C@@H](NC(=O)c2cccc(C(=O)NCCCC[C@H](NC(=O)[C@H](C)NC)C(=O)NC(C(=O)N3CCCCC3)C(C)(C)C)c2)C[C@H]1C(=O)N[C@@H]1CCCc2ccccc21)C(C)(C)C` (stereo partly shown) [Compound 151], the IC50 is 0.297 µM. The same measure, in the same setting: the same measure for `CN[C@@H](C)C(=O)N[C@@H](CCC(=O)N[C@H]1CC(C(=O)N[C@H](C)c2ccccc2)N(C(=O)[C@@H](NC(=O)[C@H](C)NC)C(C)(C)C)C1)C(=O)N[C@H](C(=O)N[C@@H](C)C(C)C)C(C)(C)C` (stereo partly shown) [Compound 164]: above 30 µM.

The same experiment, now with this note: HCC461, HCC461; Tables 15-18; read-out: IC50 (uM) in cell viability assay in HCC461.
On to `CN[C@@H](C)C(=O)N[C@H](C(=O)N1CCC[C@H]1C(=O)N[C@H](CNC(=O)c1cc(N)cc(C(=O)NC[C@@H](NC(=O)[C@@H]2CCCN2C(=O)[C@@H](NC(=O)[C@H](C)NC)C(C)(C)C)c2ccccc2)c1)c1ccccc1)C(C)(C)C` [Compound P4-13], for which the IC50 was 0.089 µM. On the same count and under the same terms, the same measure for `CN[C@@H](C)C(=O)N[C@@H](CC#CC#CC[C@H](NC(=O)[C@H](C)NC)C(=O)N1C[C@@H](NS(=O)(=O)c2ccccc2)C[C@H]1C(=O)N[C@@H]1CCCc2ccccc21)C(=O)N1C[C@@H](NS(=O)(=O)c2ccccc2)C[C@H]1C(=O)N[C@@H]1CCCc2ccccc21` [Compound P2-11]: 0.171 µM; for `CN[C@@H](C)C(=O)N[C@H](C(=O)N1CCC[C@H]1C(=O)N[C@H](CNC(=O)C1CCC(C(=O)NC[C@@H](NC(=O)[C@@H]2CCCN2C(=O)[C@@H](NC(=O)[C@H](C)NC)C(C)(C)C)C2CCCCC2)CC1)C1CCCCC1)C(C)(C)C` (stereo partly shown) [Compound P4-6]: 0.07 µM.

As for `CN[C@@H](C)C(=O)N[C@@H](CCCCNC(=O)c1cc(O)cc(C(=O)NCCCC[C@H](NC(=O)[C@H](C)NC)C(=O)N2CCC[C@H]2C(=O)N[C@@H]2CCCc3ccccc32)c1)C(=O)N1CCC[C@H]1C(=O)N[C@@H]1CCCc2ccccc21` [Compound P2-25], the IC50 was 0.086 µM. In the case of `CN[C@@H](C)C(=O)N[C@H](C(=O)N1CCC[C@H]1C(=O)N[C@H](COCc1ccc(COC[C@@H](NC(=O)[C@@H]2CCCN2C(=O)[C@@H](NC(=O)[C@H](C)NC)C(C)(C)C)C2CCCCC2)cc1)C1CCCCC1)C(C)(C)C` [Compound P4-17], the IC50 turned out to be 0.015 µM. Take `CN[C@@H](C)C(=O)N[C@@H](CC#CC#CC[C@H](NC(=O)[C@H](C)NC)C(=O)N1CCC[C@H]1C(=O)NC1c2ccccc2-c2ccccc21)C(=O)N1CCC[C@H]1C(=O)NC1c2ccccc2-c2ccccc21` [Compound P2-5]: the IC50 was 0.091 µM. Consider `CCC[C@H](NC)C(=O)N[C@H](C(=O)N1CC[C@H](NC(=O)c2cccc(C(=O)N[C@H]3C[C@@H](C(=O)N[C@@H]4CCCc5ccccc54)N(C(=O)[C@@H](NC(C)[C@H](C)NC)C(C)C)C3)c2)C1)C(C)(C)C` (stereo partly shown) [Compound H-4], for which the IC50 was 1.69 µM. Regarding `CN[C@@H](C)C(=O)N[C@@H](CCCCCC[C@H](NC(=O)[C@H](C)NC)C(=O)N1C[C@@H](NS(=O)(=O)c2ccccc2)C[C@H]1C(=O)N[C@@H]1CCCc2ccccc21)C(=O)N1C[C@@H](NS(=O)(=O)c2ccccc2)C[C@H]1C(=O)N[C@@H]1CCCc2ccccc21` [Compound P2-14], the IC50 was found to be 0.092 µM.

Take `CN[C@@H](C)C(=O)NC(C(=O)N1CCC[C@H]1C(=O)NC1CCCc2ccccc21)c1ccc(C#Cc2ccc(C(NC(=O)[C@H](C)NC)C(=O)N3CCC[C@H]3C(=O)NC3CCCc4ccccc43)cc2)cc1` (stereo partly shown) [Compound P2-1]: the IC50 stood at 0.018 µM.

In the case of `CN[C@@H](C)C(=O)N[C@@H](CCCCNC(=O)c1ccc(C(=O)NCCCC[C@H](NC(=O)[C@H](C)NC)C(=O)N2CCC[C@H]2C(=O)NC(c2ccccc2)c2ccccc2)cc1)C(=O)N1CCC[C@H]1C(=O)NC(c1ccccc1)c1ccccc1` [Compound P2-30], the IC50 is 0.189 µM.

The experiment is the same for the next values; noted with them: HCC461, HCC461 cells, compound alone; read-out: IC50 (uM) in cell viability assay in HCC461.
Consider `CN[C@@H](C)C(=O)N[C@H](C(=O)N1C[C@@H](NC(=O)c2cncc(C(=O)N[C@H]3C[C@@H](C(=O)N[C@@H]4CCCc5ccccc54)N(C(=O)[C@@H](NC(=O)[C@H](C)NC)C(C)(C)C)C3)c2)C[C@H]1C(=O)N[C@@H]1CCCc2ccccc21)C(C)(C)C` [Compound P3-11], for which the IC50 was determined as 0.003 µM. Still for that read-out and setting: under `CN[C@@H](C)C(=O)N[C@H](C(=O)N1C[C@@H](NC(=O)c2cc(N)cc(C(=O)N[C@H]3C[C@@H](C(=O)NCc4ccc(F)cc4)N(C(=O)[C@@H](NC(=O)[C@H](C)NC)C(C)(C)C)C3)c2)C[C@H]1C(=O)NCc1ccc(F)cc1)C(C)(C)C` [Compound P3-71] stands 0.035 µM; under `CN[C@@H](C)C(=O)N[C@H](C(=O)N1C[C@@H](NC(=O)c2cc(N)cc(C(=O)N[C@H]3C[C@@H](C(=O)N[C@H](C)c4ccccc4)N(C(=O)[C@@H](NC(=O)[C@H](C)NC)C(C)(C)C)C3)c2)C[C@H]1C(=O)N[C@H](C)c1ccccc1)C(C)(C)C` [Compound P3-52], 0.044 µM. As to `CN[C@@H](C)C(=O)N[C@H](C(=O)N1C[C@@H](NC(=O)CCCC(=O)N[C@H]2C[C@@H](C(=O)NC3c4ccccc4-c4ccccc43)N(C(=O)[C@@H](NC(=O)[C@H](C)NC)C(C)(C)C)C2)C[C@H]1C(=O)NC1c2ccccc2-c2ccccc21)C(C)(C)C` [Compound P3-3], the IC50 turned out to be 0.07 µM. As for `CN[C@@H](C)C(=O)N[C@H](C(=O)N1C[C@@H](NC(=O)c2nc[nH]c2C(=O)N[C@H]2C[C@@H](C(=O)N[C@@H]3CCCc4ccccc43)N(C(=O)[C@@H](NC(=O)[C@H](C)NC)C(C)(C)C)C2)C[C@H]1C(=O)N[C@@H]1CCCc2ccccc21)C(C)(C)C` [Compound P3-36], the IC50 came out at 2.38 µM. Same read-out and setting: the same measure for `C#CC[C@H](NC(=O)[C@H](C)NC)C(=O)N1C[C@@H](NC(=O)N[C@H]2C[C@@H](C(=O)N[C@@H]3CCCc4ccccc43)N(C(=O)[C@H](CC#C)NC(=O)[C@H](C)NC)C2)CC1C(=O)N[C@@H]1CCCc2ccccc21` (stereo partly shown) [Compound P3-9]: 0.086 µM; for `CN[C@@H](C)C(=O)N[C@H](C(=O)N1C[C@@H](NC(=O)c2cccc(C(=O)N[C@H]3C[C@@H](C(=O)N[C@H](C)C4CCCCC4)N(C(=O)[C@@H](NC(=O)[C@H](C)NC)C(C)(C)C)C3)c2)C[C@H]1C(=O)N[C@H](C)C1CCCCC1)C(C)(C)C` [Compound P3-43]: 0.057 µM; for `CN[C@@H](C)C(=O)N[C@H](C(=O)N1C[C@@H](n2cc(-c3cccc(-c4cn([C@H]5C[C@@H](C(=O)N[C@H](C)c6ccccc6)N(C(=O)[C@@H](NC(=O)[C@H](C)NC)C(C)(C)C)C5)nn4)c3)nn2)C[C@H]1C(=O)N[C@H](C)c1ccccc1)C(C)(C)C` [Compound P3-88]: 0.033 µM. The same measure, in the same setting: the same measure for `CC[C@H](C)C(NC(=O)[C@H](C)NC)C(=O)N1C[C@@H](NC(=O)c2cc(OC)cc(C(=O)N[C@H]3C[C@@H](C(=O)N[C@H](C)c4ccccc4)N(C(=O)C(NC(=O)[C@H](C)NC)[C@@H](C)CC)C3)c2)C[C@H]1C(=O)NC(C)c1ccccc1` (stereo partly shown) [Compound P3-74]: 0.072 µM; for `CN[C@@H](C)C(=O)N[C@H](C(=O)N1C[C@@H](NC(=O)c2cc(C(=O)N[C@H]3C[C@@H](C(=O)N[C@@H]4CCCc5ccccc54)N(C(=O)[C@@H](NC(=O)[C@H](C)NC)C(C)(C)C)C3)cc(N(S(C)(=O)=O)S(C)(=O)=O)c2)C[C@H]1C(=O)N[C@@H]1CCCc2ccccc21)C(C)(C)C` [Compound P3-41]: 0.016 µM. For the molecule `CN[C@@H](C)C(=O)N[C@H](C(=O)N1C[C@@H](NC(=O)c2cc(C(=O)N[C@H]3C[C@@H](C(=O)N[C@H](C)c4ccccc4)N(C(=O)[C@@H](NC(=O)[C@H](C)NC)C4CCCCC4)C3)[nH]n2)C[C@H]1C(=O)N[C@H](C)c1ccccc1)C1CCCCC1` [Compound P3-79], the IC50 was found to be 0.057 µM.

The experiment is the same for the next values; noted with them: HCC461; Tables 15-18; read-out: IC50 (uM) in cell viability assay in HCC461.
With `CN[C@@H](C)C(=O)N[C@H](C(=O)N1CCC[C@H]1C(=O)N[C@H](CNC(=O)C1CCCC(C(=O)NC[C@@H](NC(=O)[C@@H]2CCCN2C(=O)[C@@H](NC(=O)[C@H](C)NC)C(C)(C)C)C2CCCCC2)C1)C1CCCCC1)C(C)(C)C` (single isomer, unassigned) [Compound P4-4], the IC50 was found to be 0.004 µM.

Still in this experiment, the particulars now being: HCC461 cells, compound alone; read-out: IC50 (uM) in cell viability assay in HCC461.
Take `CN[C@@H](C)C(=O)N[C@H](C(=O)N1C[C@@H](NC(=O)c2cccc(C(=O)N[C@H]3C[C@@H](C(=O)NC4CCCC5CCCCC54)N(C(=O)[C@@H](NC(=O)[C@H](C)NC)C(C)(C)C)C3)c2)C[C@H]1C(=O)NC1CCCC2CCCCC21)C(C)(C)C` (stereo partly shown) [Compound P3-58]: the IC50 was determined as 0.211 µM.
